In US20230126893A1, “[(1,4,5-TRISUBSTITUTED-1H-PYRAZOL-3-YL)SULFANYL]ACETIC ACID DERIVATIVES, SALTS THEREOF, AND USE THEREOF AS ACTIVE HERBICIDAL INGREDIENTS” (BAYER AKTIENGESELLSCHAFT, priority 2020, published 2023):

How the values were obtained:
Type in all cases: in vivo
[1] = tested on: Setaria viridis; assay: Pre-emergence herbicidal effect against SETVI; settings: 1280 g/ha, visual score after 3 weeks, 100% = plants have died, 0% = like control plants
Excerpt: (§1) 1. Pre-emergence herbicidal effect and crop plant compatibility Seeds of monocotyledonous and dicotyledonous weed plants and crop plants are laid out in sandy loam soil in wood-fibre pots and covered with soil. The compounds of the invention, formulated in the form of wettable powders (WP) or as emulsion concentrates (EC), are then applied to the surface of the covering soil as aqueous suspension or emulsion at a water application rate equating to 600 to 800 L/ha with addition of 0.2% wetting agent. After the treatment, the pots are placed in a greenhouse and kept under good growth conditions for the trial plants. The damage to the test plants is scored visually after a test period of 3 weeks by comparison with untreated controls (herbicidal activity in percent (%): 100% activity=the plants have died, 0% activity=like control plants). [table]

[2] = tested on: Stellaria media; assay: Pre-emergence herbicidal effect against STEME; settings: 1280 g/ha, visual score after 3 weeks, 100% = plants have died, 0% = like control plants
Excerpt: as §1

[3] = tested on: Tripleurospermum inodorum; assay: Pre-emergence herbicidal effect against MATIN; settings: 1280 g/ha, visual score after 3 weeks, 100% = plants have died, 0% = like control plants
Excerpt: as §1

[4] = tested on: Digitaria sanguinalis; assay: Pre-emergence herbicidal effect against DIGSA; settings: 1280 g/ha, visual score after 3 weeks, 100% = plants have died, 0% = like control plants
Excerpt: as §1

[5] = tested on: Veronica persica; assay: Pre-emergence herbicidal effect against VERPE; settings: 1280 g/ha, visual score after 3 weeks, 100% = plants have died, 0% = like control plants
Excerpt: as §1

[6] = tested on: Alopecurus myosuroides; assay: Pre-emergence herbicidal effect against ALOMY; settings: 1280 g/ha, visual score after 3 weeks, 100% = plants have died, 0% = like control plants
Excerpt: as §1

[7] = tested on: Veronica persica; assay: Post-emergence herbicidal effect against VERPE; settings: 1280 g/ha, visual assessment about 3 weeks after treatment, 100% = plants have died, 0% = like control plants
Protocol: (§2) [table] 2. Post-emergence herbicidal effect and crop plant compatibility Seeds of monocotyledonous and dicotyledonous weed and crop plants are laid out in sandy loam soil in wood-fibre pots, covered with soil and cultivated in a greenhouse under good growth conditions. 2 to 3 weeks after sowing, the test plants are treated at the one-leaf stage. The compounds of the invention, formulated in the form of wettable powders (WP) or as emulsion concentrates (EC), are then sprayed onto the green parts of the plants as aqueous suspension or emulsion at a water application rate equating to 600 to 800 l/ha with addition of 0.2% wetting agent. After the test plants have been left to stand in the greenhouse under optimal growth conditions for about 3 weeks, the action of the preparations is assessed visually in comparison to untreated controls (herbicidal action in percent (%): 100% activity=the plants have died, 0% activity=like control plants).

[8] = tested on: Poa annua; assay: Pre-emergence herbicidal effect against POAAN; settings: 1280 g/ha, visual score after 3 weeks, 100% = plants have died, 0% = like control plants
Excerpt: as §1

[9] = tested on: Stellaria media; assay: Post-emergence herbicidal effect against STEME; settings: 1280 g/ha, visual assessment about 3 weeks after treatment, 100% = plants have died, 0% = like control plants
Protocol: as §2

[10] = tested on: Bassia scoparia; assay: Post-emergence herbicidal effect against KCHSC; settings: 1280 g/ha, visual assessment about 3 weeks after treatment, 100% = plants have died, 0% = like control plants
Protocol: as §2

[11] = tested on: Poa annua; assay: Post-emergence herbicidal effect against POAAN; settings: 1280 g/ha, visual assessment about 3 weeks after treatment, 100% = plants have died, 0% = like control plants
Protocol: as §2

[12] = tested on: Digitaria sanguinalis; assay: Post-emergence herbicidal effect against DIGSA; settings: 1280 g/ha, visual score after about 3 weeks, 100% = plants have died, 0% = like control plants
Protocol: as §2

[13] = tested on: Alopecurus myosuroides; assay: Post-emergence herbicidal effect against ALOMY; settings: 1280 g/ha, visual score after about 3 weeks, 100% = plants have died, 0% = like control plants
Protocol: as §2

[14] = tested on: Lolium rigidum; assay: Pre-emergence herbicidal effect against LOLRI; settings: 1280 g/ha, visual score after 3 weeks, 100% = plants have died, 0% = like control plants
Excerpt: as §1

[15] = tested on: Setaria viridis; assay: Post-emergence herbicidal effect against SETVI; settings: 1280 g/ha, visual assessment about 3 weeks after treatment, 100% = plants have died, 0% = like control plants
Protocol: as §2

[16] = tested on: Echinochloa crus-galli; assay: Pre-emergence herbicidal effect against ECHCG; settings: 1280 g/ha, visual score after 3 weeks, 100% = plants have died, 0% = like control plants
Excerpt: as §1

[17] = tested on: Echinochloa crus-galli; assay: Post-emergence herbicidal effect against ECHCG; settings: 1280 g/ha, visual score after about 3 weeks, 100% = plants have died, 0% = like control plants
Protocol: as §2

[18] = tested on: Tripleurospermum inodorum; assay: Post-emergence herbicidal effect against MATIN; settings: 1280 g/ha, visual assessment about 3 weeks after treatment, 100% = plants have died, 0% = like control plants
Protocol: as §2

[19] = tested on: Abutylon threophrasti; assay: Post-emergence herbicidal effect against ABUTH; settings: 1280 g/ha, visual assessment about 3 weeks after treatment, 100% = plants have died, 0% = like control plants
Protocol: as §2

Row | SMILES | Pre-emergence action against SETVI [1] [%] | Pre-emergence action against STEME [2] [%] | Pre-emergence action against MATIN [3] [%] | Pre-emergence action against DIGSA [4] [%] | Pre-emergence action against VERPE [5] [%] | Pre-emergence action against ALOMY [6] [%] | Post-emergence action against VERPE [7] [%] | Pre-emergence action against POAAN [8] [%] | Post-emergence action against STEME [9] [%] | Post-emergence action against KCHSC [10] [%] | Post-emergence action against POAAN [11] [%] | Post-emergence action against DIGSA [12] [%] | Post-emergence action against ALOMY [13] [%] | Pre-emergence action against LOLRI [14] [%] | Post-emergence action against SETVI [15] [%] | Pre-emergence action against ECHCG [16] [%] | Post-emergence action against ECHCG [17] [%] | Post-emergence action against MATIN [18] [%] | Post-emergence action against ABUTH [19] [%]
1 | CCOC(=O)CSc1nn(-c2ccccc2OC)c(-c2ccc(F)cc2)c1Br [Example I-023] | 90 | 100 | 100 | 100 | 100 | 90 | 90 | 100 |  |  |  |  |  |  |  |  |  |  | 
2 | CCOC(=O)CSc1nn(-c2ccc(Cl)cc2Cl)c(-c2ccc(F)c(F)c2)c1Br [Example I-026] |  |  | 100 |  |  |  | 90 |  |  |  |  |  |  |  |  |  |  |  | 
3 | CCOC(=O)CSc1nn(-c2ccc(F)cc2F)c(-c2ccc(F)c(F)c2)c1Br [Example I-027] | 100 | 100 | 100 | 100 | 90 |  | 100 | 100 | 90 | 90 | 90 | 100 | 100 | 90 |  |  |  |  | 
4 | CCOC(=O)CSc1nn(-c2ccccc2F)c(-c2ccc(Cl)nc2)c1Br [II-012] | 90 | 100 | 100 |  | 100 | 90 | 90 | 100 |  |  | 100 |  | 90 | 100 | 90 | 90 | 90 | 90 | 
5 | CCOC(=O)CSc1nn(-c2ccccc2F)c(-c2ccc(Br)nc2)c1Br [II-015] |  | 100 | 100 |  |  |  | 90 | 90 |  |  | 90 |  |  |  |  |  |  | 90 | 90
6 | O=C(O)CSc1nn(-c2ccccc2F)c(-c2ccc(Cl)nc2)c1Br [II-016] | 100 | 100 | 100 | 100 | 90 | 90 | 100 | 100 | 100 |  | 100 | 100 | 100 | 100 |  | 100 | 100 | 100 | 
7 | O=C(O)CSc1nn(-c2ccccc2F)c(-c2cccnc2)c1Br [II-017] | 90 | 90 | 90 |  | 100 | 90 | 90 | 100 |  |  | 100 |  | 90 |  | 90 | 90 | 90 | 90 | 
8 | O=C(O)CSc1nn(-c2cccc(F)c2F)c(-c2cncnc2)c1Br [III-005] | 90 | 90 | 90 |  | 90 |  | 90 | 100 |  | 90 |  |  |  |  |  | 90 | 90 | 90 | 90
9 | O=C(O)CSc1nn(-c2ccccc2F)c(-c2cnccn2)c1Br [VI-002] | 90 | 90 | 90 |  |  |  | 90 | 100 |  |  |  |  | 90 |  |  | 90 | 90 | 90 | 
10 | CCOC(=O)CNC(=O)CSc1nn(-c2ccccc2F)c(-c2ccc(F)c(F)c2)c1Br [VII-003] | 100 | 100 | 100 |  | 100 |  | 90 | 100 | 90 |  | 100 |  | 100 | 100 |  | 100 |  | 90 | 
11 | COC(=O)CNC(=O)CSc1nn(-c2ccccc2F)c(-c2ccc(F)c(F)c2)c1[N+](=O)[O-] [VII-004] |  | 100 |  |  |  |  |  | 100 |  |  |  |  |  |  |  |  |  |  | 
12 | COC(=O)CNC(=O)CSc1nn(-c2ccccc2F)c(-c2ccccc2)c1Br [VII-005] | 90 | 100 | 100 |  | 100 | 90 | 100 | 100 | 90 | 100 | 100 |  | 100 | 90 | 100 | 90 | 90 | 100 | 100
13 | COC(=O)CCNC(=O)CSc1nn(-c2ccccc2F)c(-c2cccnc2)c1Br [VII-006] | 90 | 90 | 90 |  | 90 | 90 | 90 | 100 |  | 90 | 100 |  | 90 |  | 90 | 90 |  | 90 | 
14 | COC(=O)CN(C)C(=O)CSc1nn(-c2ccccc2F)c(-c2cccnc2)c1Br [VII-008] |  |  |  |  |  |  | 90 | 90 |  | 90 |  |  |  |  |  |  |  |  | 90
15 | COC(=O)CN(C)C(=O)CSc1nn(-c2ccccc2F)c(-c2ccc(F)c(F)c2)c1Br [VII-011] |  |  | 90 |  | 90 | 90 | 90 | 100 |  | 90 |  |  | 90 |  |  |  |  |  | 
